Test results published in PMC12012479, “Structural and functional characterization of the brain-specific dynamin superfamily member RNF112” (Proceedings of the National Academy of Sciences of the …, 2025).
Numbering of substitutions follows the chain as printed. Blank lines part the entries; values can stand above or below the molecule they belong to.

Legend:
RNF112F [1] = target: T1, RNF112F (Xenopus laevis, UniProt Q2VPQ0, T240A, form not given); assay: binding assay in SI Fig. S9; conditions: GTPase-deficient mutant
T1 construct: gene rnf112.2.L; near-full-length, residues 60 to 541 (RING, GTPase and middle domains); His6-SUMO tag cut by ULP1; E. coli; dimer with GDP-AlF4-
T1 sequence (Q2VPQ0 60-541 T240A): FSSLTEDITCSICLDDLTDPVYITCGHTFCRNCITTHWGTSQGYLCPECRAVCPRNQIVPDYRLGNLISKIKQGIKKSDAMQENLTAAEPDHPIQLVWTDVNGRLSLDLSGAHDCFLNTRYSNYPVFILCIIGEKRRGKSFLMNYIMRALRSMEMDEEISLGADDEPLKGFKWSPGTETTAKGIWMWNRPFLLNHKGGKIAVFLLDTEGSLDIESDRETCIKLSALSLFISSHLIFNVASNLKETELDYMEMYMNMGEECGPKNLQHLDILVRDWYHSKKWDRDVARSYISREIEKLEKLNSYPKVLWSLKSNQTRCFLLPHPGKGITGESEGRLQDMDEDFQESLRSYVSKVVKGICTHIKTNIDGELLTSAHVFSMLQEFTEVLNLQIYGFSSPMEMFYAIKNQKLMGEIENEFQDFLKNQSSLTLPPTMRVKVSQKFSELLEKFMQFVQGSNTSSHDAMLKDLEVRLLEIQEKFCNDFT

RNF112F [2] = target: T2, RNF112F (Xenopus laevis, UniProt Q2VPQ0); assay: GTP hydrolysis assay; type: biochemical; conditions: 1 mM GTP, 20 μM protein, 1 mM MnCl2, pH 7.0, 37 °C
T2 construct: gene rnf112.2.L; near-full-length, residues 60 to 541 (RING, GTPase and middle domains); His6-SUMO tag cut by ULP1; E. coli; dimer with GDP-AlF4-
T2 sequence (Q2VPQ0 60-541): T1 sequence (Q2VPQ0 60-541 T240A) with A181T

mouse RNF112T = target: T3, mouse RNF112T (Mus musculus, UniProt Q96DY5); assay: GTP hydrolysis assay; type: biochemical; conditions: 1 mM GTP, 20 μM protein, 1 mM MnCl2, pH 7.0, 37 °C
T3 construct: gene Rnf112; truncated, GTPase domain + middle domain (borders not in main text); E. coli
T3 sequence (Q96DY5 170-563 limits assumed): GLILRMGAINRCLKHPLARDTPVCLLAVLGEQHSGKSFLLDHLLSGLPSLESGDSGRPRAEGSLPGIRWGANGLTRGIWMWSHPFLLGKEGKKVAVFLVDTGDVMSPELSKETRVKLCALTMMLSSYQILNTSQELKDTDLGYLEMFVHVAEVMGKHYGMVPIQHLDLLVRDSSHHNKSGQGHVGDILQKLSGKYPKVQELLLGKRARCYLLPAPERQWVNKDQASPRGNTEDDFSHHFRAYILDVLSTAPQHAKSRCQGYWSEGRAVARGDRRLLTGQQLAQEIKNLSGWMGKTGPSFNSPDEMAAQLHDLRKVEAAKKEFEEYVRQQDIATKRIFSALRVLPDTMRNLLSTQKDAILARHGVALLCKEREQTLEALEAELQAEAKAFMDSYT

human RNF112T = target: T4, human RNF112T (Homo sapiens, UniProt Q9ULX5); assay: GTP hydrolysis assay; type: biochemical; conditions: 1 mM GTP, 20 μM protein, 1 mM MnCl2, pH 7.0, 37 °C
T4 construct: gene RNF112; truncated, GTPase domain + middle domain (borders not in main text); E. coli
T4 sequence (Q9ULX5 150-540 limits assumed): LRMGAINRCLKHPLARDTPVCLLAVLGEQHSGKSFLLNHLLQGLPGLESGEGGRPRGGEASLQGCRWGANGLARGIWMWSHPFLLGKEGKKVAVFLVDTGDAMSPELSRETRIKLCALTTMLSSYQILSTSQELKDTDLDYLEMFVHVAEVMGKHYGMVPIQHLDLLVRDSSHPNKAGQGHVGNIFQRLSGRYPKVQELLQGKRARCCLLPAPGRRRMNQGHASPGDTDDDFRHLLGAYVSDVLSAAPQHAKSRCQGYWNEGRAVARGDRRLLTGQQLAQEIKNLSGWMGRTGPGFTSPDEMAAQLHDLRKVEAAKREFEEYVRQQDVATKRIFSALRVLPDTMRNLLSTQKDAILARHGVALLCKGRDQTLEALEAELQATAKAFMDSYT

[3] = target: near-full-length Xenopus laevis RNF112 containing residues 60 to 541 (RNF112F) (Xenopus laevis); assay: SEC; analytical gel filtration in the presence of GDP•AlF4^−
RNF112T (xlRNF112T) [4] = target: T5, RNF112T (xlRNF112T) (Xenopus laevis, UniProt Q2VPQ0); assay: ITC; type: binding; conditions: 5 mM MgCl2, 150 mM NaCl, pH 7.4, 25 °C
T5 construct: gene rnf112.2.L; GTPase domain + three-helix middle domain; His6-SUMO tag cut by ULP1; E. coli; monomer, dimer with GDP-AlF4-
T5 sequence (Q2VPQ0 120-541 limits assumed): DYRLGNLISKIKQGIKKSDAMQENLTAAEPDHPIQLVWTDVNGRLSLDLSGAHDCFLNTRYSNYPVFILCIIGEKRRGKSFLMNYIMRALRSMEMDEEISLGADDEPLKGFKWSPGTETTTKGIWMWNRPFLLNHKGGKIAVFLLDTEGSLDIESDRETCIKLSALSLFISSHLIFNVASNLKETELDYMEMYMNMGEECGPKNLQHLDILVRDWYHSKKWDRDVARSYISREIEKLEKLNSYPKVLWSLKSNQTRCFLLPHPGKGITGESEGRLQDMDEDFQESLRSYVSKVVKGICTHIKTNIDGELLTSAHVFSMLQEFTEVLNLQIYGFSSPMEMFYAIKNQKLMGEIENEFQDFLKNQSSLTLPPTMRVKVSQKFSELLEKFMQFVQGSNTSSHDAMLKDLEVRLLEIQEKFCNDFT
Excerpt: ITC on RNF112T (xlRNF112T) | binding GTPγS and GDP with dissociation constants (Kd) in the micromolar range

RNF112T (xlRNF112T) [5] = target: T5, RNF112T (xlRNF112T); assay: X-ray crystal structure (form […] from GTPγS, […] Å; form […] by soaking); type: binding; conditions: nucleotide pocket of GTPase domain

Molecule: Nc1nc2c(ncn2[C@@H]2O[C@H](COP(=O)(O)OP(=O)(O)OP(=O)(O)O)[C@@H](O)[C@H]2O)c(=O)[nH]1 [GTP]
binding assay in SI Fig. S9 (RNF112F [1]): GTPase-deficient mutant RNF112F(T240A), which bound GTP but did not dimerize
GTP hydrolysis assay (RNF112F [2]): showed similar GTPase activity as RNF112T
GTP hydrolysis assay (mouse RNF112T): purified human and mouse RNF112T had relatively weak GTPase activity
GTP hydrolysis assay (human RNF112T): purified human and mouse RNF112T had relatively weak GTPase activity

stoichiometry N [3]: 2
Molecule: near-full-length Xenopus laevis RNF112 containing residues 60 to 541 (RNF112F) (domain or fragment)

Kd (RNF112T (xlRNF112T) [4]): 14.4 ± 2.5 µM
Molecule: Nc1nc2c(ncn2[C@@H]2O[C@H](COP(=O)(O)OP(=O)(O)O)[C@@H](O)[C@H]2O)c(=O)[nH]1 [GDP]
X-ray crystal structure (form 1 from GTPγS, 2.2 Å; form 2 by soaking) (RNF112T (xlRNF112T) [5]): GDP-bound RNF112T structure derived from a nucleotide-free RNF112T crystal soaked with GDP
